Like-named read-outs stand apart in the source and are kept apart here.
Tests used:
MDA-MB-231 cells [1] = experiment: In vitro anti-proliferative activity assay (MTT); format: cell-based; details: Homo sapiens, 48 h incubation
Experimental: Cells lines were maintained as monolayers in Dulbecco’s Modified Eagle’s Medium (DMEM) supplemented with 10% FBS, 2 mM L-glutamine, 100 U/ml penicillin and 100 µg/ml streptomycin sulfate. Cells were sub-cultured with trypsine/EDTA solution, counted with haemocytometer and plated onto 96-well plates (5000 cells/well) and left overnight to form a semi-confluent monolayer. […] DMSO (100 µl/well) was added to dissolve the formazan crystals with shaking for 10 min after which the absorbance was read at 590 nm against no cell blanks on a FLuo Star Optima microplate reader (BMG Technologies, Germany). Cell proliferation was calculated comparing the OD values of the DMSO control wells and those of the samples represented as % proliferation to the control.
The in vitro anti-proliferative activity of the newly synthesized spirooxindoles 6a–p was examined against TNBC MDA-MB-231 cells. This assay was performed utilizing the 3–(4,5-dimethylthiazol-2-yl)-2,5-diphenyltetrazolium bromide (MTT) colorimetric assay as described by Mosmann[18]. Adriamycin was included in this assay as a reference drug.

EGFR = biological target: T1, EGFR (Homo sapiens, UniProt P00533); experiment: EGFR kinase ELISA assay; format: biochemical; details: colorimetric ELISA, mean ± SD of three separate experiments
T1 construct: purchased BPS Biosciences 40321
T1 sequence (P00533 25-1210): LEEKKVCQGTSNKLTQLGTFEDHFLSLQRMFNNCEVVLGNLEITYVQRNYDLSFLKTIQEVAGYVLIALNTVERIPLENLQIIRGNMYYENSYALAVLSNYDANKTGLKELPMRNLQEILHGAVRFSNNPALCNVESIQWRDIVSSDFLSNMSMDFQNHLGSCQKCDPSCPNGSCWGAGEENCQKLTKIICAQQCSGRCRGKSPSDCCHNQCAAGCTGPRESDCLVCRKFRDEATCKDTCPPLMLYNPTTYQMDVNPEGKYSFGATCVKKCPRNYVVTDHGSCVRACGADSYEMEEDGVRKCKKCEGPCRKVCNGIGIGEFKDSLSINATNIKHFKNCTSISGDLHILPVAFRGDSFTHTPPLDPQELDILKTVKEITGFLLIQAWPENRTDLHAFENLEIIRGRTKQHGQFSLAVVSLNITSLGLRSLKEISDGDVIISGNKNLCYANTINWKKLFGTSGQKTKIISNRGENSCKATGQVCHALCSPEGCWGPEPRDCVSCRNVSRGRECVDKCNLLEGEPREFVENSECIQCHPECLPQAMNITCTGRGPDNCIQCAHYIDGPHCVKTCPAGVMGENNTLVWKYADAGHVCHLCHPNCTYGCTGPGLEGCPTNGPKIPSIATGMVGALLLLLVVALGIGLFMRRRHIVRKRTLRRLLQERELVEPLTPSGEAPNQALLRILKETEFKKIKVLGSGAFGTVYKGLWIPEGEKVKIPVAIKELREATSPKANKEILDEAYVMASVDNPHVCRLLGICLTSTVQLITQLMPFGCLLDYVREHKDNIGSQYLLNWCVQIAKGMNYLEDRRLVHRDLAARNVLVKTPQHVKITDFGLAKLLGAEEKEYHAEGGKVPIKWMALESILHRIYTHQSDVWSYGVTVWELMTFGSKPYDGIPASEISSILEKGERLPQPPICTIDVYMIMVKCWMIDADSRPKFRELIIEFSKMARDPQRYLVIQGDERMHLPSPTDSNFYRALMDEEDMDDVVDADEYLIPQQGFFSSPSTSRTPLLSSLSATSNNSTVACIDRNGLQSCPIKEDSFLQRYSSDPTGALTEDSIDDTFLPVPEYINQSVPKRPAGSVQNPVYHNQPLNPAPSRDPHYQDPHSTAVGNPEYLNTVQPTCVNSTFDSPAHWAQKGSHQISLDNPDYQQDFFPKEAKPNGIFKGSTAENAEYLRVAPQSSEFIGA
Experimental: Percent inhibition was calculated by the comparison of compounds treated to control incubations.
Erlotinib, a clinically used EGFR inhibitor, was taken as the reference drug.

caspase-3 = experiment: Active caspase-3 level in MDA-MB-231 cells (ELISA); format: cell-based; details: MDA-MB-231 cells treated with compound at its IC50 concentration
Experimental: (§1) The levels of the apoptotic markers (Bax, caspase-3) as well as the anti-apoptotic marker (Bcl-2) were assessed using ELISA colorimetric kits per the manufacturer’s protocol and referring to reported instructions[21]^,[22].
Caspases, a family of cysteineaspartic proteases, are the crucial apoptosis mediators that provide essential links in cell regulatory networks controlling cell death. Caspase-3 is the key executioner caspase which modifies proteins ultimately responsible for apoptosis.

WI-38 cells = experiment: In vitro cytotoxic activity, WI-38 cells (MTT); format: cell-based, human
Experimental: WI-38 cells ([…]), were obtained from American Type Culture Collection. The cells were propagated in DMEM supplemented with 10% heat-inactivated FBS (Hyclone), 10 μg/ml of insulin (Sigma), and 1% penicillin-streptomycin. All of the other chemicals and reagents were from Sigma, or Invitrogen. Cytotoxicity was determined using MTT assay following a reported procedure.

Bax = Bax level in MDA-MB-231 cells (ELISA); format: cell-based; details: MDA-MB-231 cells treated with compound at its IC50 concentration
Experimental: as §1
(§2) Bcl-2 family comprises a group of crucial regulatory factors in apoptosis that finely tune the apoptotic switch on/off mechanism. Based on their functional and structural criteria, the members are divided into two major classes; group I proteins that are anti-apoptotic and group II proteins that are apoptotic. Group I anti-apoptotic proteins exert their function by inhibiting group II apoptotic proteins through simply binding to them. Group I proteins bind selectively to the active conformations of group II proteins to prevent them from being inserted into the mitochondria and thus cease the release of pro-apoptotic factors such as cytochrome c, ultimately aborting apoptosis. Thus, the inhibition of group I proteins and/or the activation of group II proteins can successfully induce apoptosis.

Bcl-2 = Bcl-2 level in MDA-MB-231 cells (ELISA); format: cell-based; details: MDA-MB-231 cells treated with compound at its IC50 concentration
Experimental: as §1, §2

MDA-MB-231 cells [2] = experiment: Cell cycle analysis (DNA flow cytometry)
Experimental: Then cells were washed twice with ice-cold phosphate buffered saline (PBS). Subsequently, the treated cells were collected by centrifugation, fixed in ice-cold 70% (v/v) ethanol, washed with PBS, re-suspended with 0.1 mg/mL RNase, stained with 40 mg/mL PI, and analyzed by flow cytometry using FACS Calibur (Becton Dickinson, BD, USA). The cell cycle distributions were calculated using CellQuest software (Becton Dickinson).

MDA-MB-231 cells [3] = experiment: Annexin V-FITC apoptosis assay; format: cell-based; details: MDA-MB-231, 24 h
Experimental: Phosphatidylserine externalization was measured using Annexin V-FITC/PI apoptosis detection kit (BD Biosciences, San Jose, CA) according to the manufacturer's instructions, as reported earlier. MDA-MB-231cells were treated with 6e at defined concentrations for 24 h.
Externalization of the phospholipid phosphatidylserine at the cell membrane is a one of the well-recognized hallmarks of cells going into apoptosis[17]^,[29].

tsFT210 cells = tested on: tsFT210 cells; design: method as in ref 7 = [7]; 7 Cui C-B , Kakeya H , Osada H. Novel mammalian cell cycle inhibitors, spirotryprostatins A and B, produced by Aspergillus fumigatus , which inhibit mammalian cell cycle at G2/M phase . Tetrahedron 19; details: read-out: IC50, inhibition of cell cycle progression at G2/M phase; cited from earlier work
MCF-7 = tested on: MCF-7; design: method as in PMID 24747063; details: ordinary breast cancer; read-out: IC50, cytotoxic activity MCF-7; cited from earlier work
[4] = tested on: MDA-MB-231 cancer cell line; details: TNBC; read-out: IC50, cytotoxic activity MDA-MB-231; cited from earlier work
MDA cell lines = tested on: MDA cell lines; design: method as in ref 10 = [10]; 10 Jiang X , Sun Y , Yao J , et al Core scaffold‐inspired concise synthesis of chiral spirooxindole‐pyranopyrimidines with broad‐spectrum anticancer potency . Adv Synth Catal 2012; 354 : 917 – 25 .; details: read-out: IC50, cytotoxicity against MDA cell lines; cited from earlier work

Compound	IC50 (MDA-MB-231 cells [1]) [µM]	IC50 (EGFR) [µM]	Caspase-3 (caspase-3) [ng/mL]	Bax (Bax) [pg/mL]	Bax, number of folds of control (Bax) [folds]	Bcl-2 (Bcl-2) [ng/mL]	Bcl-2, number of folds of control (Bcl-2) [folds]	further results
N#CC1=C(c2ccccc2)Nc2c(c(-c3cccs3)nn2-c2ccccc2)C12C(=O)Nc1ccccc12 (stereo not drawn) [Compound 6a, 2-Oxo-1',6'-diphenyl-3'-(thiophen-2-yl)-1',7'-dihydrospiro[indoline-3,4'-pyrazolo[3,4-b]pyridine]-5'-carbonitrile]	6.7	0.43 ± 0.04	0.3501	405.5	506.8	0.3958	0.147	IC50 (WI-38 cells; WI-38, MTT assay, human normal lung fibroblast cell line, read-out: IC50 (µM) WI-38): 78.1 µM; Selectivity Index (WI-38 cells; WI-38 versus MDA-MB-231): 11.7; Bcl-2 expression compared to basal level in the control (Bcl-2): 14.7%
N#CC1=C(c2ccccc2)Nc2c(c(-c3cccs3)nn2-c2ccccc2)C12C(=O)Nc1ccc(Cl)cc12 (stereo not drawn) [Compound 6e, 5-Chloro-2-oxo-1',6'-diphenyl-3'-(thiophen-2-yl)-1',7'-dihydrospiro[indoline-3,4'-pyrazolo[3,4-b]pyridine]-5'-carbonitrile]	6.4	0.15 ± 0.02	0.4058	353.7	442.1	0.7449	0.276	Cells in G2-M phase (MDA-MB-231 cells [2]): 19.1%; Change in the S phase (MDA-MB-231 cells [2]): no significant change; Caspase-3, number of folds of control (caspase-3): ~36.5 folds; IC50 (WI-38 cells; Homo sapiens, WI-38, read-out: IC50 (µM) WI-38): 43.2 µM; Annexin V-FITC positive apoptotic cells, folds compared to control (MDA-MB-231 cells [3]): about 32.8 folds; Percent of annexin V-FITC positive apoptotic cells (UR + LR) (MDA-MB-231 cells [3]; control 1.34%): 44%
CC(C)=CC1N2C(=O)C3CCCN3C(=O)C2=CC12C(=O)Nc1ccccc12 (stereo not drawn) [Spirotryprostatins B]	–	–	–	–	–	–	–	IC50 (tsFT210 cells): 14 µM
CC(C)(C)C1=NN(c2ccccc2)C2(C(=O)Nc3c(Cl)cccc32)C1c1ccccc1 (stereo not drawn) [compound (iii)]	–	–	–	–	–	–	–	IC50 (MCF-7): 8.6 µM; IC50 [4]: 6.4 µM
CC(=O)n1c(C)nc2c(c1=O)[C@@]1(C(=O)Nc3c(F)cccc31)c1c(c3cc(F)ccc3oc1=O)O2 [derivative (ii)]	–	–	–	–	–	–	–	IC50 (MDA cell lines): 6.9 µM

— article PMC6009943, “One-pot three-component synthesis of novel spirooxindoles with potential cytotoxic activity against triple-negative breast cancer MDA-MB-231 cells” (Journal of Enzyme Inhibition and Medicinal Chemistry, 2017)
